Experimental data: patent publication US12433870B2, “Supramolecular photoprotection of a photosensitizer” (Northwestern University, priority 2019, dated 2025)

Legend:
ExBox^4+ and DPP = assay: 1H NMR titration, host-guest association constant (1:1 binding model); conditions: 1H NMR titration in (CD3)2CO, 298 K
Description: The synthesis of ExBox•4Cl was carried out following our previously reported procedure^17. Solid DPP (0.46 mg, […]) was dissolved in Me2CO (1 mM, 1 mL) and added to a solution of ExBox•4Cl in H2O (1.0 mM, 1 mL). The mixture was sonicated for 15 min, Me2CO was removed in vacuum, and the H2O portion was passed through a 0.45-μm filter to yield 1:1 ExBox^4+⊃DPP complex (FIG. 1A) in water. Upon complex formation, the aqueous solution color changed to light orange-pink or tangerine. […] The resonances for the α and CH2 protons of ExBox^4+ were affected only slightly by the shielding effect of DPP as they are located at the corners and display only slight shifts in their […] spectra. This pattern is in excellent agreement with the inclusion of DPP inside ExBox^4+ in solution. […] The association constant (Ka) obtained from 1:1 binding model was calculated to be 12600±300 M^−1 from the chemical shifts of […] titrations experiments (FIG. 1B-1C) between ExBox^4+ and DPP in (CD3)2CO.
The ^1H NMR (298 K, 500 MHz) titration was performed by adding small volumes of a solution of DPP in Me2CO-d6 to a solution of ExBox•4PF6 in Me2CO-d6. […]
(CD3)2CO stock solutions of ExBox^4+ (0.4 mM) and DPP (5.4 mM) were prepared. […] The NMR spectra were recorded after each addition of DPP solution. […]

[1] = pH-dependent release of DPP from the complex (fluorescence and transient absorption, pH 4.5); assay type: physicochemical
Text: At low pH, DPP can be protonated. Therefore, the electrostatic repulsion between the cationic DPP and the tetracationic host ExBox^4+ can trigger release of DPP in H2O. Indeed, when aqueanous solution of ExBox^4+⊃DPP is acidified with HCl (pH 4.5), protonated DPP was released in H2O leading to 17-fold increment of fluorescence signals (FIG. 4A). […] The residual population survived for several microseconds and has a transient absorption spectrum of ^3*DPP; the […] (FIGS. 4D-4E) approximates the decay of the long-lived triplet state in aerated, room temperature aqueous solution. […] We estimate this fraction to be approximately 30% at the ˜20 μM concentration of the transient absorption experiments.
The setup for transient absorption measurements has been described elsewhere.^3 Photoexcitation pulses at 414 nm were obtained through a beta barium borate (BBO) crystal doubling the fundamental, and the 575 nm pulses were generated with a laboratory-constructed optical parametric amplifier. The pulse power for photoexcitation was attenuated to ˜1 μJ/pulse, using neutral density filters. The pump polarization was randomized employing a commercial depolarizer (DPU-25-A, Thorlabs, Inc.) to eliminate any orientational dynamics contributions from the experiment. […]

A2780 cells [2] = assay: Live cell confocal microscopy, cellular uptake and co-localization; assay type: cell-based, human
Description: (§1) A2780 cells (1×10^5 cells/mL, 300 μL) were plated in each well of an 8-well μ-slide (ibidi cell focus) and cultured overnight. PBS solution of ExBox^4+⊃DPP was added to each well and incubated for predetermined time points. For cellular co-localization studies, cells were washed with phenol free DMEM and stained with LysoTracker green (lysosome stain, 1:1000 dilution) or MitoSpy™ Green FM (mitochondria stain, 1:2000 dilution) or NucBlue™ Live ReadyProbes™ Reagent (nuclei stain, 1 drop). For the live-dead assay, cells were incubated with PBS solution of ExBox^4+⊃DPP irradiated for 10 min at […] light intensity, incubated overnight, and stained with Calcein AM (2 μM) and Ethidium homodimer-1 (4 μM). Plated cells were imaged within a humidified chamber using a 63× oil-immersion objective on a SP5 Leica Confocal Microscope using HyD detectors and lasers.

A2780 cells [3] = assay: Intracellular ROS generation (DCFDA assay); assay type: cell-based, human; conditions: 10 μM/0.156 J cm^−2 light dose, compared with dark or untreated cells
Description: Intracellular ROS generation assay was performed using DCFDA Cellular ROS Detection Assay Kit (Abeam), according to the manufacturer's instructions. Briefly, A2780 cells (2.5×10^5 cells/mL, 100 μL) were seeded in each well of a black 96-well plate and incubated with PBS solution of ExBox^4+⊃DPP for 12 h. After incubation, cells were washed with PBS and incubated with 2′,7′-dichlorofluorescin diacetate (DCFDA) (20 μM) for 45 min in the dark. Then the cells were rinsed with PBS, irradiated and fluorescence was measured (λex=485 and λem=535 nm) using a microplate reader. Control experiments with PBS solution of ExBox^4+⊃DPP treated cells and untreated cells, both with and without irradiation were performed.

A2780 cells [4] = assay: Calcein-AM/Ethidium homodimer-1 live-dead assay; assay type: cell-based, human; conditions: 10 μM
Description: as §1

For `C1=Cc2nc1cc1ccc([nH]1)c(-c1ccccc1)c1nc(cc3ccc([nH]3)c2-c2ccccc2)C=C1.c1cc2ccc1C[n+]1ccc(cc1)-c1ccc(cc1)-c1cc[n+](cc1)Cc1ccc(cc1)C[n+]1ccc(cc1)-c1ccc(cc1)-c1cc[n+](cc1)C2` [ExBox^4+⊃DPP], the “association constant (Ka)” value (ExBox^4+ and DPP) was 12600 ± 300 M⁻¹, the “increment of fluorescence signals on release of protonated DPP” value ([1]; aqueous solution acidified with HCl (pH 4.5) versus pH 7, λex=414 nm) was 17 fold and the “fraction of the complex population with DPP released (electron transfer turned off)” value ([1]; pH 4.5, ~20 μM, transient absorption) was “approximately 30%”. For the same molecule, the “cell injury under continuous irradiation (real-time confocal)” value (A2780 cells [2]; 5 min continuous irradiation, 25 mW) was “showed blebs on their surface”, the “lysosomal co-localization (lysotracker)” value (A2780 cells [2]; 1 h incubation) was “no lysosomal co-localization” and the “mitochondrial internalization (mitospy)” value (A2780 cells [2]; 12 h incubation, 10 μM) was “no mitochondrial internalization”. For the same molecule, the “lysosomal co-localization (lysotracker)” value (A2780 cells [2]; incubation time up to 12 h) was “co-localization of DPP with the green fluorescence of lysotracker was detected”, the “lowest concentration traceable as punctate inside cells” value (A2780 cells [2]; red laser excitation, 12 h incubation) was 0.1 and the “increase in intracellular ROS” value (A2780 cells [3]) was 20 fold. The live-dead staining (A2780 cells [4]; 0.156 J cm^−2 light dose for 10 min) was “red fluorescence” and the live-dead staining (A2780 cells [4]; dark conditions) was “bright green fluorescence”.
